Biological target: Human immunodeficiency virus type 1 reverse transcriptase (Human immunodeficiency virus 1, UniProt Q72547)
Assay: Inhibitory concentration against Reverse transcriptase

IC50 [µM]	Structure (SMILES)
9.77	N#Cc1ccccc1[S+]([O-])c1cccc(N)c1C#N (configuration not stated)
0.0295	N#Cc1c(N)cccc1S(=O)(=O)c1ccc2ccccc2c1

— ChEMBL document CHEMBL1141934, “Comparison of ligand-based and structure-based 3D-QSAR approaches: a case study on (aryl-)bridged 2-aminobenzonitriles inhibiting HIV-1 reverse transcriptase” (J Med Chem, 2005)
